Experimental data as given in patent US9814758B2, “Inhibitors of apoptosis and uses thereof” (CENTRE NATIONAL DE LA RECHERCHE SCIENTIFIQUE-CNRS, priority 2010, dated 2017).
Entries after “also recorded” stand apart in the source; their conditions may differ. No end group written: not given here.

Columns and labels:
[1] = tested on: primary cardiomyocytes; test: STS-induced DNA fragmentation (Cell Death detection ELISA PLUS) in primary cardiomyocytes; type: cell-based, mouse; conditions: for ability to decrease cell apoptosis / protect the cells: against STS; for reduction of DNA fragmentation: peptide given together with staurosporine, 1 μM, related to STS-treated cells (=100%), FIG. 5B
Description: FIG. 5: In vitro evaluation of the anti-apoptotic activity of CPPs and CPP-conjugates. Workflow and quantitation of DNA fragmentation in (A) C2C12 cells, (B) primary cardiomyocytes, (C) H9c2 cells and (D) NG108-15 cells. Data were normalized to 100% STS. Data shown are the means±SEM, with n≧5. Cells were seeded in 24-well plates and grown overnight. The next day, the cells were incubated with STS alone or with STS+1 μM peptide (in OPTI-MEM) (OPTI-MEM® is a modification of Eagle's Minimum Essential Media, buffered with HEPES and sodium bicarbonate, and supplemented with hypoxanthine, thymidine, sodium pyruvate, L-glutamine, trace elements, and growth factors) (STS concentration and incubation time for each cells are given in the figure). Thereafter, solutions were removed, replaced by complete medium and further incubated for 40 h. Following the regeneration phase, the cells were lyzed and DNA fragmentation was detected according to manufacturer's instructions (Cell Death detection ELISA^PLUS kit—Roche Diagnostics).
FIG. 6: Anti-apoptotic activity of variants of the Tat-DAXXp sequence on primary cardiomyocytes. As described in the caption of FIG. 5, the different analogues of the DAXXp sequence (see Table 2) were assessed for anti-apoptotic properties against STS (Cell Death detection ELISA^PLUS kit—Roche Diagnostics) (A-B). None of the analogues were able to protect the primary cardiomyocytes—a fact which confirms that the 16mer DAXXp has the optimal length and sequence for highest cardioprotective effect.
FIG. 7: Comparison of the murine/rat DAXXp with the human DAXXp sequence in terms of anti-apoptotic activity on C2C12 cells, primary cardiomyocytes, and H9c2. The murine DAXXp sequence conjugated to Tat (Tat-mDAXXp—SEQ ID NO: 61) which is identical to the rat DAXXp sequence (see FIG. 1B), was compared to the human construct (Tat-DAXXp) in terms of anti-apoptotic properties against STS (Cell Death detection ELISA^PLUS kit—Roche Diagnostics). The C2C12 cells and the primary cardiomyocytes used were from mice and the H9c2 cells from rat.
FIG. 9: Comparison of FADDp constructs with Tat-DAXXp in terms of anti-apoptotic activity in primary cardiomyocytes and in H9c2 cells. Quantification of DNA normalized to 100% STS. Data shown are the means±SEM, with n≧5. Cells were seeded in 24-well plates and grown overnight. The next day, the cells were incubated with STS alone or with STS+1 μM peptide (in OPTI-MEM®) (OPTI-MEM® is a modification of Eagle's Minimum Essential Media, buffered with HEPES and sodium bicarbonate, and supplemented with hypoxanthine, thymidine, sodium pyruvate, L-glutamine, trace elements, and growth factors) (STS concentration is given in the figure and incubation time is given in FIG. 5). Thereafter, solutions were removed, replaced by complete medium and further incubated for 40 hours. Following the regeneration phase, the cells were lyzed and DNA fragmentation was detected according to manufacturer's instructions (Cell Death detection ELISA^PLUS kit—Roche Diagnostics).
FIG. 10: Comparison of Tat-DAXXp and Tat-FADDp15 alone and in combination in primary cardiomyocytes (A) and in H9c2 cells (B).
Thereafter, the capacity of these peptides to inhibit apoptosis induced by staurosporine was evaluated. Apoptosis was determined using the Cell Death detection ELISA^PLUS kit (Roche) measuring the DNA fragmentation.
In most publications, anti-apoptotic peptides currently available in the art are administrated 3-4 hours prior to apoptosis induction, which is poorly relevant to a clinical application. For that reason, the protocol used in the present study included administration of the peptides together with the staurosporine. […] This was not observed with CPP alone or with the Tat-scrDAXXp or Tat-ncDAXXp negative controls. […] To better compare the results, the DNA fragmentation (described by the enrichment factor) is related to the staurosporine-treated cells (=100%).

[2] = biological target: T1, His-tagged intracellular region of Fas receptor (Homo sapiens, UniProt P25445); test: SPOT peptide array, enzyme-linked blot with His-tagged Fas; type: binding; conditions: Fas 10 μg/ml, anti-His/anti-mouse-HRP
T1 construct: His-tagged intracellular region of Fas receptor [10 μg/ml]; purchased Sigma
T1 sequence (P25445 191-335 limits assumed): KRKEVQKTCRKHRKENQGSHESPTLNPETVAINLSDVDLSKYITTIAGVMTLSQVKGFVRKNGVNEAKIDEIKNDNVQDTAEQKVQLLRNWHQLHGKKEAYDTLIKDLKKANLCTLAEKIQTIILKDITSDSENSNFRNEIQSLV
Description: FIG. 1: Determination of the DAXX epitope by SPOT synthesis. (A) The amino acid sequence of DAXX was dissected in overlapping peptide arrays (pepscan; 15 mer peptides with a shift of 3 amino acids) and analyzed in enzyme-linked blot. […] Incubation conditions: His-tagged intracellular region of Fas receptor [10 μg/ml]; antibodies: anti-His-(mouse) (Sigma H1029; 1:6,000)/anti-mouse-HRP (Calbiochem 401207; 1:2,000), exposure time: 1 minute. (B) Alignment of the human DAXX sequence comprising the 16-mer KKSRKEKKQTGSGPLG (=DAXXp of SEQ ID NO: 5) with the DAXX sequences of other species (mouse, rat, dog (CANFA) and green monkey (CHLAE)).
FIG. 2: Determination of the optimal length of the DAXX epitope (=DAXXp) by SPOT synthesis. (A) The DAXXp-211 and DAXXp-209 peptides (of SEQ ID NO: 2 and SEQ ID NO: 3, respectively) were successively shortened by one amino acid residue at the N-terminus, at the C-terminus and both at the N- and the C-termini, and analyzed using enzyme-linked blot. […] Incubation conditions: His-tagged intracellular region of Fas receptor [10 μg/ml]; antibodies: anti-His-(mouse) (Sigma H1029; 1:6,000)/anti-mouse-HRP (Calbiochem 401207; 1:2,000), exposure time: 1 minute. (B) Alignment of both peptide sequences DAXXp-211 and DAXXp-209; corresponding to the brightest spots, to determine the optimal DAXX peptide sequence.
FIG. 8: Determination of FADDp15 and its anti-apoptotic effect in cardiomyocytes. (A) The protein sequences of FADD were dissected in overlapping peptide arrays (pepscan; 15 mer peptides with a shift of 3 amino acids) and analyzed using enzyme-linked blot. […] (B) The peptide sequence of FADDp-11 (=FADDp15=SEQ ID NO: 9) was successively shortened by one amino acid residue at the C-terminus, the N-terminus, or at both the C-terminus and the N-terminus, and analyzed using enzyme-linked blot. […] The shortest FADD epitope (a 9-mer with sequence KRKLERVQS (=FADDp=SEQ ID NO: 12)) corresponded to spot No. 24. Incubation conditions: His-tagged intracellular region of Fas receptor [10 μg/ml]; antibodies: anti-His-(mouse) (Sigma H1029; 1:6,000)/anti-mouse-HRP (Calbiochem 401207; 1:2,000), exposure time: 1 minute.
The peptides were synthesized on N-modified CAPE-membranes (Bhargava et al, Mol. Recognit, 2002, 15: 145) and prepared by a MultiPep SPOT-robot (INTAVIS Bioanalytical Instruments AG, Cologne, Germany). Array design was performed with the aid of the in-house software LISA 1.71. The synthesis started with spot definition using a standard protocol [Frank, Tetrahedron, 1992, 48: 9217), followed by the coupling of a solution of Fmoc-cysteine-(Trt)-Opfp (0.3M) in N-methylpyrolidone (NMP) and Fmoc-alanine-Opfp (double coupling, 15 min reaction each). After Fmoc cleavage with piperidine in DMF (20%), 4-hydroxymethylphenoxyacetic acid (HMPA) dissolved in dimethylformamide (DMF, 0.6M solution) and activated with EEDQ (1.1 equiv) was added, and samples were directly spotted on the membrane (4× coupling, 15 min reaction each). The membrane was acetylated with acetic anhydride in DMF (2%), washed with DMF (5×3 min), ethanol (2×3 min), and diethyl ether (2×3 min), and finally air dried. Solutions of Fmoc-amino acid-OH (0.4M) activated with 1,1′-carbonyldiimidazole (CDI, 3 equiv) in DMF were spotted on the membrane (4× coupling, 15 min reaction time each). Proline, tyrosine, and glutamine were activated with 1,1′-carbonyldi(1,2,4-triazole) (CDT). The Fmoc group was removed from the spots, and the peptide sequences were completed using the standard SPOT synthesis protocol (Frank, Tetrahedron, 1992, 48: 9217) followed by a N-terminal tag with β-alanine.
The primary sequence of the DAXX protein (SEQ ID NO: 1) was dissected in overlapping 15 mer peptides (3 amino acids shift) and all the peptides (243 peptides) were synthesized on cellulose membrane by SPOT synthesis as described above. The peptide library was incubated with the His-tagged intra-cellular region of the Fas receptor (Sigma). […]

[3] = tested on: C57Bl6 mice, myocardial ischemia-reperfusion; test: Myocardial ischemia-reperfusion IR60' (40 min ischemia, 60 min reperfusion); type: in vivo, mouse; conditions: IR60'; data not shown
Description: FIG. 11: In vivo experimental protocol. C57Bl6 mice underwent a surgical protocol of myocardial ischemia-reperfusion (IR). The black box represents the period of ischemia to which the mice were submitted. Infarct size or cell death measurements were performed at the end of surgery for each protocol (indicated by ↑). IR60′: 40 minutes of Ischemia, 60 minutes of Reperfusion. IR24h: 40 minutes Ischemia and 24 hours Reperfusion.
FIG. 12: Cardioprotective effects of Tat-DAXXp (1 mg/kg—IV) in mice subjected to IR60′. Infarct size (in % of area at risk) and internucleosomal DNA fragmentation determined by ELISA were quantified in mice subjected to IR60′ and treated with Tat, Tat-DAXXp or Tat-scrDAXXp (1 mg/kg) as well as with DAXXp (10 mg/kg) (intravenous injection (IV) 5 minutes before reperfusion). Means±SEM were plotted for (A): Area at risk/LV mass (left ventricle), (B): Infarct size (in % of area at risk) and (C): (I/NI ratio) corresponding to the ratio of soluble nucleosome in the ischemic portion versus the non-ischemic portion of LV tissues. Statistical analysis was performed using One-way ANOVA with Neuman-Keuls post test for multiple comparisons (GraphPad Prism software). P<0.05, P<0.01 and P<0.001 versus Tat-DAXXp were noted *, **, and *** respectively. P=ns (not significant) for P>0.05.
FIG. 13: Dose response for Tat-DAXXp and DAXXp in mice subjected to IR60′. Infarct size (in % of area at risk) and internucleosomal DNA fragmentation determined by ELISA were quantified in mice subjected to IR60′ and treated with Tat (1 mg/kg), Tat-DAXXp (0.1, 1 and 10 mg/kg) or DAXXp (0.1, 1 and 10 mg/kg) injected intravenously 5 minutes before reperfusion. Means±SEM were plotted for (A): Area at risk/LV mass (left ventricle), (B): Infarct size (in % of area at risk) and (C): (I/NI ratio) corresponding to the ratio of soluble nucleosome in the ischemic versus the non-ischemic portion of LV tissues.
In a second step, the cardioprotective effects of DAXXp were evaluated in an in vivo model of myocardial ischemia-reperfusion. Acute myocardial ischemia and reperfusion were performed in C57Bl6 mice subjected to a surgical model of reversible coronary occlusion. Male mice (22-28 g) were anesthetized and ventilated via a tracheal intubation using a Harvard rodent respirator. Body temperature was maintained between 36.8° C. and 37.0° C. via a thermo-regulated surgical table. The chest was opened by left lateral thoracotomy and a reversible coronary artery snare occluder was placed around the left coronary artery. Mice were randomly allocated to two different surgical protocols of myocardial ischemia-reperfusion (FIG. 11). At the end of reperfusion, the artery was re-occluded and phtalocyanine blue dye was injected into the left ventricle cavity and allowed to perfuse the non-ischemic portions of the myocardium. To determine the effect of DAXXp on myocardial infarct size, peptides were administered intravenously (caudal vein) 5 minutes before reperfusion during the surgical protocol of ischemia-reperfusion. The control groups were treated with Tat or Pip2b peptide (for CPP alone). The dose of 1 mg/kg was chosen (μmolar range) and dose responses for 0.1 and 10 mg/kg were also tested.
At the end of reperfusion, mice were re-anaesthetized, the coronary ligature definitively tightened, the blue dye injected and the harvested left ventricles were dedicated to infarct size (TTC method, Schwartz et al, J Thromb. Thromb., 2000; 10: 181-187) or DNA fragmentation measurements (Cell death detection ELISA^PLUS kit, Roche Diagnostics) in order to investigate the cardioprotective effects against ischemia-reperfusion injuries.

Substance	ability to decrease cell apoptosis / protect the cells [1]	interaction with the Fas receptor / signal intensity of the spot [2]	interaction with the Fas receptor / signal intensity of the spot ([2]; listed as Spot No. 211)	reduction of DNA fragmentation [1]	cardioprotection (infarct size, DNA fragmentation) [3]
VGKRKLERVQSGLDL (listed as Homo sapiens) [FADDp15]	decrease cell apoptosis	higher signal intensity; also recorded: interact with the Fas receptor	–	–	–
KRKLERVQS (listed as Homo sapiens) [FADDp]	decrease cell apoptosis	interact with the Fas receptor	–	–	–
KSRKEKKQTGSGPLG (listed as Homo sapiens) [DAXXp-15]	only DAXXp is capable of decreasing cell apoptosis	interact with the Fas receptor	highest signal intensity	–	–
GRKKRRQRRRPPQ-KKGRKQSGESLGTPKK-NH2 (GRKKRRQRRRPPQKKGRKQSGESLGTPKK-NH2) [Tat-scrDAXXp, negative control; scrambled version of DAXXp conjugated to Tat]	–	–	–	not observed	not observed
DAXXp-14: fragment of the DAXX protein, amino acid sequence set forth in SEQ ID NO: 6 (SRKEKKQTGSGPLG; listed as Homo sapiens)	only DAXXp is capable of decreasing cell apoptosis	interact with the Fas receptor	–	–	–
GRKKRRQRRRPPQ-AKLYVYINELCTVLK-NH2 [Tat-ncDAXXp]	–	–	–	not observed	–
